Laboratory results published in patent US20230293629A1, “METHODS FOR ATTENUATING RELEASE OF INFLAMMATORY MEDIATORS AND PEPTIDES USEFUL THEREIN” (BIOMARCK PHARMACEUTICALS LTD., priority 2006, published 2023).

What was measured:
NHBE cells = experiment: Mucin secretion from NHBE cells, ELISA; type: cell-based, human; details: FIG. 3; NHBE cells preincubated 15 min; okadaic acid 500 nM, fostriecin indicated concentrations
Procedure: It is believed that PKG acts to dephosphorylate MARCKS via activation of a protein phosphatase. […] NHBE cells were preincubated with the indicated concentration of fostriecin, okadaic acid (500 nM), or medium alone for 15 min and then stimulated with PMA (100 nM)+8-Br-cGMP (1 μM) for 15 min or with UTP (100 μM) for 2 h. Secreted mucin was measured by ELISA. […] Thus, dephosphorylation of MARCKS by a PKG-activated PP2A appears to be an essential component of the signaling pathway leading to mucin granule exocytosis.
MARCKS-related Peptides—Both the myristoylated N-terminal sequence (MANS) and the random N-terminal sequence (RNS) peptides were synthesized at Genemed Synthesis, Inc. (San Francisco, Calif.), then purified by high pressure liquid chromatography (>95% pure), and confirmed by mass spectroscopy with each showing one single peak with an appropriate molecular mass. The MANS peptide consisted of sequence identical to the first 24 amino acids of MARCKS, i.e. the myristoylated N-terminal region that mediates MARCKS insertion into membranes, MA-[…] […]

[1] = system: MARCKS phosphorylation in NHBE cells; experiment: MARCKS phosphorylation in NHBE cells, radiolabeled immunoprecipitation assay; type: cell-based, human
Procedure: Radiolabeled Immunoprecipitation Assay—When labeling with [^32P]phosphate, cells were preincubated for 2 h in phosphate-free Dulbecco's modified Eagle's medium containing 0.2% bovine serum albumin and then labeled with 0.1 mCi/ml [^32P]orthophosphate (9000 Ci/mmol, PerkinElmer Life Sciences) for 2 h. For labeling with [^3H]myristic acid or 3H-amino acids, cells were incubated overnight in medium containing 50 μCi/ml [^3H]myristic acid (49 Ci/mmol, PerkinElmer Life Sciences) or 0.2 mCi/ml [^3H]leucine (159 Ci/mmol, PerkinElmer Life Sciences) plus 0.4 mCi/ml [^3H]proline (100 Ci/mmol, PerkinElmer Life Sciences). Following labeling, cells were exposed to stimulatory reagents for 5 min. When an inhibitor was used, cells were preincubated with the inhibitor for 15 min prior to stimulation. At the end of the treatments, cells were lysed in a buffer containing 50 mM Tris-HCl (pH 7.5), 150 mM NaCl, 1 mM EDTA, 10% glycerol, 1% Nonidet P-40, 1 mM phenylmethylsulfonyl fluoride, 1 mM benzamidine, 10 μg/ml pepstatin A, and 10 μg/ml leupeptin. Trichloroacetic acid precipitation and scintillation counting may determine the radiolabeling efficiency in each culture. Immunoprecipitation of MARCKS protein was carried out according to the method of Spizz and Blackshear using cell lysates containing equal counts/min. Spizz et al., J. Biol. Chem. 271, 553-562 (1996). Precipitated proteins were resolved by 8% SDS-polyacrylamide gel electrophoresis and visualized by autoradiography. Anti-human MARCKS antibody (2F12) and nonimmune control antibody (6F6) were used in this assay.
To assess MARCKS or MARCKS-associated protein complexes in different subcellular fractions, radiolabeled and treated cells were scraped into a homogenization buffer (50 mM Tris-HCl (pH 7.5), 10 mM NaCl, 1 mM EDTA, 1 mM phenylmethylsulfonyl fluoride, 1 mM benzamidine, 10 μg/ml pepstatin A, 10 μg/ml leupeptin) and then disrupted by nitrogen cavitation (800 pounds/square inch for 20 min at 4° C.). Cell lysates were centrifuged at 600×g for 10 min at 4° C. to remove nuclei and unbroken cells. Post-nuclear supernatants were separated into membrane and cytosol fractions by ultracentrifugation at 400,000×g for 30 min at 4° C. The membrane pellet was solubilized in the lysis buffer by sonication. Immunoprecipitation was then carried out as described above.

PP2A [2] = molecular target: PP2A (Homo sapiens, UniProt P67775); details: inhibitor of PP2A; cited from earlier work
PP2A [3] = experiment: Protein phosphatase activity assay in NHBE cell lysates, PP2A; type: cell-based, human
Procedure: (§1) Protein Phosphatase Activity Assay—PP1 and PP2A activities were measured using a protein phosphatase assay system (Life Technologies, Inc.) as known in the art with slight modification. Huang et al., Adv. Exp. Med Biol. 396, 209-215 (1996). Briefly, NHBE cells were treated with 8-Br-cGMP or medium alone for 5 min. Cells were then scraped into a lysis buffer (50 mM Tris-HCl (pH 7.4), 0.1% β-mecaptoethanol, 0.1 mM EDTA, 1 mM benaamidine, 10 μg/ml pepstatin A, 10 μg/ml leupeptin) and disrupted by sonication for 20 s at 4° C. Cell lysates were centrifuged and the supernatants saved for phosphatase activity assay. The assay was performed using ^32P-labeled phosphorylase A as a substrate. Released ^32Pi was counted by scintillation. The protein concentration of each sample was determined by the Bradford assay. PP2A activity was expressed as the sample total phosphatase activity minus the activity remaining in the presence of 1 nM okadaic acid. PP1 activity was expressed as the difference between the activities remaining in the presence of 1 nM and 1 μM okadaic acid, respectively. Protein phosphatase activities were reported as nmol of Pi released per min/mg total protein.

[4] = system: isolated human neutrophils; experiment: MPO secretion from isolated human neutrophils stimulated with PMA + 8-Br-cGMP (FIG. 7, 8, 9); type: cell-based; details: FIG. 9; 8-Br-cGMP alone, until co-stimulation with PMA
PP1 = experiment: Protein phosphatase activity assay in NHBE cell lysates, PP1; type: cell-based, human; details: NHBE cells after 8-Br-cGMP
Procedure: as §1

[5] = system: isolated canine neutrophils; experiment: MPO secretion from isolated canine neutrophils stimulated with PMA + 8-Br-cGMP (FIG. 6, 10, 11); type: cell-based; details: FIG. 11; 8-Br-cGMP alone, until co-stimulation with PMA
Text: The invention also relates to a new method for blocking any cellular exocytotic secretory process, especially those releasing inflammatory mediators from granules contained within inflammatory cells, whose stimulatory pathways involve the protein kinase C (PKC) substrate MARCKS protein and release of contents from membrane-bound vesicles. Specifically, the inventors have shown that stimulated release of the inflammatory mediator myloperoxidase from human (FIG. 6) or canine (FIG. 7) neutrophils can be blocked in a concentration-dependent manner by the MANS peptide. […] 10 or 100 μM of a control peptide (RNS) has no effect on MPO secretion. In FIG. 7, isolated neutrophils were stimulated to secrete myloperoxidase (MPO) with 100 nM PMA and 10 μM 8-Br-cGMP. […] 10 or 100 μM of a control peptide (RNS) has no effect on MPO secretion. Thus, the peptide may be used therapeutically to block the release of mediators of inflammation secreted from infiltrating inflammatory cells in any tissues. Many of these released mediators are responsible for the extensive tissue damage observed in a variety of chronic inflammatory diseases (i.e., respiratory diseases such as asthma, chronic bronchitis and COPD, inflammatory bowel diseases including ulcerative colitis and Crohn's disease, autoimmune diseases, skin diseases such as rosacea, eczema; and severe acne, arthritic and pain syndromes such as rheumatoid arthritis and fibromyalgia). This invention may be useful for treating diseases such as arthritis, chronic bronchitis, COPD and cystic fibrosis. This invention is accordingly useful for the treatment in both human and animal diseases, especially those affecting equines, canines, felines, and other household pets.
FIGS. 8-12 show MPO secretion for both humans and canines. In all of these experiments, isolated neutrophils were stimulated with LPS at a concentration of 1×10^−6 M for 10 minutes at 37° C. prior to adding the stimuli as indicated in the figures. The LPS primes the cells so they can respond to a secretagogue.
Isolation of PMNs from canine blood—The steps involved in isolating PMN include collecting 10 ml ACD anticoagulated blood. Then layering 5 ml on 3.5 ml PMN isolation media while ensuring that the PMN isolation media (IM) was at room temperature (RI). Next, the blood was centrifuged at room temperature for 30′, 550×g at 1700 RPMs. The low lower white band was transferred into 15 ml conical centrifuge tube (CCFT). Next, 2V HESS with 10% fetal bovine serum […] was added and centrifuged at room temperature for 10′, 400×g at 1400 RPMs. The pellet was then resuspended in 5 ml 1-1ESS with PBS. The cell suspension was added to 50 ml CCFT containing 20 ml of ice cold 0.88% NH4Cl and inverted two to three times. The resulting product was centrifuged for 10′, 800×g at 2000 RPMs, then aspirated and resuspended in 5 ml HBSS with FBS. The prep was examined by counting and cytospin and preferably for whole blood, the cell number should be between 10^9-10^11 cells and for PMNs, cell number should be between 2-4×10^7 cells. See generally, Wang et al., J. Immunol., “Neutrophil-induced changes in the biomechanical properties of endothelial cells: roles of ICAM-1 and reactive oxygen species,” 6487-94 (2000).
MPO Colorimetric Enzyme Assay—Samples were assayed for MPO activity in 96 well round bottom microtiter plates using a sandwich ELISA kit (R & D Systems, Minneapolis, Minn.). […]

PP2A (Homo sapiens, UniProt P67775), sequence (P67775 whole entry): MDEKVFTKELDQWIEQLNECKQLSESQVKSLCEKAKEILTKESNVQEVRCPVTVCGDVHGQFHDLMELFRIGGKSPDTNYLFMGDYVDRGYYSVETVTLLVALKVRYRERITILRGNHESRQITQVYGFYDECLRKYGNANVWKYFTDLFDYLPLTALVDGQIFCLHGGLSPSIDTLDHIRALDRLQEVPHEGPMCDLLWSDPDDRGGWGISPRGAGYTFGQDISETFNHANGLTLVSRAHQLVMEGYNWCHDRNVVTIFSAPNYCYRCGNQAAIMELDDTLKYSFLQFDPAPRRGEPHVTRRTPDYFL

In the case of `C=C1[C@@H](O)[C@@H]2O[C@]3(CC[C@H](/C=C/[C@@H](C)[C@@H]4CC(C)=C[C@@]5(O[C@H](C[C@@](C)(O)C(=O)O)CC[C@H]5O)O4)O3)CC[C@H]2O[C@@H]1[C@@H](O)C[C@H](C)[C@H]1O[C@@]2(CCCCO2)CC[C@H]1C` [okadaic acid], the “mucin secretion induced by PMA+8-Br-cGMP or UTP” value (NHBE cells) is reported as “attenuated mucin secretion” and the “effect on PKG-induced MARCKS dephosphorylation” value ([1]; 500 nM okadaic acid) is reported as “blocked”.

In the case of `C[C@@](O)(/C=C/[C@H]1CC=CC(=O)O1)[C@@H](C[C@@H](O)\C=C/C=C\C=C\CO)OP(=O)(O)O` [fostriecin], the “mucin secretion induced by PMA+8-Br-cGMP or UTP” value (NHBE cells) is listed as “attenuated mucin secretion”, the IC50 (PP2A [2]) is listed as 3.2 nM and the “effect on PKG-induced MARCKS dephosphorylation” value ([1]; fostriecin 1-500 nM) is listed as “inhibited PKG-induced MARCKS dephosphorylation in a concentration-dependent manner”.

For `Nc1nc2c(nc(Br)n2[C@@H]2O[C@@H]3COP(=O)(O)O[C@H]3[C@H]2O)c(=O)[nH]1` [8-Br-cGMP], the PP2A activity (PP2A [3]; NHBE cells after 8-Br-cGMP, from 0.1) was 0.3 nmol/min/mg proteins, the “increase of PP2A activity” value (PP2A [3]; NHBE cells, 8-Br-cGMP as low as 0.1 μM, p<0.01) was “approximately 3 fold” and the “MPO secretion from LPS-stimulated human neutrophils” value [4] was “little effect”. The PP1 activity (PP1) was “remained unchanged”, the “MPO secretion from LPS-stimulated canine neutrophils” value [5] was “little effect” and the “effect on MARCKS phosphorylation induced by PMA” value ([1]; 1 μM 8-Br-cGMP, 100 nM PMA) was “reversed”.
